Laboratory results published in patent publication US20240100076A1, “METHODS AND COMPOSITIONS FOR TREATING NEURODEGENERATIVE DISEASES” (Augusta University Research Institute, Inc., priority 2021, published 2024).
“Also recorded” adds a separate entry of the source.

Experiments:
VDAC1 = VDAC1 expression in PD mouse brain; format: in vivo; conditions: intranasal 5 mg/kg/day for 28 days
Procedure: (§1) The acquisition, care, and experimental treatment of animals used in this study were in compliance with the NIH guidelines as published in the Guide for the Care and Use of Laboratory Animals. Gangliosides (GD3 or GM1; 5 mg/kg/day) were infused intranasally (Hanson, et al., J. Vis. Exp. (74) (2013) doi.org/10.3791/4440.) with a small pipette (each […] into the right and left nares twice, or […] per day) into 8-month-old WT (C57B6/J), A53T PD, and GM2S-KO mice daily for 7-28 days. GD3 and GM1 used in this study were isolated from either bovine buttermilk or brains by established procedures (Ariga, et al., J. Biol. Chem. 269, 2667-2675 (1994), Ledeen and Yu, Methods Enzymol. 83, 139-191 (1982), Ren, et al., J. Biol. Chem. 267, 12632-12638 (1992)). Gangliosides, being amphipathic, were easily dissolved in saline. The placebo group received saline infusions. At first, to provide direct evidence for ganglioside administration into brain, mice totally deficient in GM1 (8-month-old GM2S-KO mice) were intranasally administered GM1 (0.5 or 5 mg/kg/day) for 7 days. Brain-delivered GM1 was analyzed by immunohistochemistry and TLC. After confirmation that ganglioside reached the brain of GM2S-KO mice by the intranasal route, 8-month-old A53T PD mice were utilized for ganglioside treatments (28 days). […]

5XFAD mice [1] = test: Whole-body dual-energy X-ray absorptiometry (DXA) in 5XFAD mice; format: in vivo, mouse; conditions: intranasal, 8 weeks (combination 4 + 4 weeks)
Procedure: Bone loss often accelerates with neurodegenerative diseases and during aging. Protecting from bone loss would be complementary to treatments for neurodegenerative diseases. Body composition analyses were measured by dual-energy X-ray absorptiometry (DXA; Kubtec Digimus, KUB Technologies, Stratford, CT, USA). Bone area (cm2), Bone mineral content (BMC, grams) and bone mineral density (BMD, g/cm2) were calculated for the whole body (FIGS. 11A-11C) using the manufacturer's analysis software (Kubtec Digimus). […] Increasing bone density in patients with neurodegenerative diseases, would decrease risk of fracture and increase the quality of life.

5XFAD mice [2] = test: Buried pellet test (olfactory function) in 5XFAD mice; format: in vivo, mouse; conditions: intranasal 5 mg/kg/day for 8 weeks (combination: GD3 4 weeks, GM1 4 weeks), n=3
Procedure: To detect olfaction deficiency, the buried pellet test was assessed (FIG. 10A). Bedding tips were set to 3 cm height. The time until mice uncover the food pellet was measured. […] It is believed that GD3 maintains stemness and inhibits further neuronal differentiation such as olfactory neurons. […] The buried pellet test, which relies on the animal's natural tendency to use olfactory cues for foraging, is used to confirm ability to smell (FIG. 10A). The time until mice uncover the food pellet in bedding tips was measured. […] Thus, GD3 has important role in olfactory function (FIG. 12).

5XFAD mice [3] = test: Novel object recognition test in 5XFAD mice; format: in vivo, mouse; conditions: intranasal 5 mg/kg/day for 8 weeks (combination: GD3 4 weeks, GM1 4 weeks), 2-month-old 5XFAD mice, n=3
Procedure: FIGS. 9A and 9B illustrate the memory function of intranasal ganglioside treatments. FIG. 9A is a schematic diagram showing the experimental procedure of novel object recognition test. […] Each mouse was placed in an arena, with two identical objects placed at each end of the arena. After 5 min of investigation, mice were returned to their home cage. 24 hours later, one test object was replaced with a novel object, and animals were allowed 5 min for investigation. The time spent exploring each object was recorded. Percentages of exploration time of novel object (memory) are shown in the columns (n=3).
Gangliosides (5 mg/kg/day), GD3, GM1, or GD3-GM1 (GD3 for 4 weeks and GM1 for 4 week) were administered into 2-month-old 5XFAD mice for 8 weeks. To assess the effect of intranasal ganglioside treatment on cognitive function, mice were tested using the novel object recognition test (FIG. 9A). […] These findings indicate that intranasal ganglioside has an important role to enhance hippocampal-dependent learning and memory.

[4] = test system: hippocampal NSC (Sox2 positive cell); test: SOX2 positive NSCs in hippocampus of PD mouse brain; format: in vivo; conditions: intranasal 5 mg/kg/day for 28 days (combination: GD3 2 weeks, then GM1 2 weeks)
Procedure: as §1

aSyn = target: T1, aSyn (Homo sapiens, UniProt P37840, A53T); test: aSyn levels in A53T PD mouse brain after intranasal gangliosides; format: in vivo; conditions: intranasal 5 mg/kg/day for 28 days, 8-month-old A53T PD mice
T1 construct: tissue The Jackson Laboratory 006823; host or cells: brain / substantia nigra of A53T PD transgenic mice
Procedure: as §1

NSC pools in DG and SVZ = conditions: icv by micro-osmotic pump, 5 mg/kg/day for 7 days, GD3S-KO mouse; cited from earlier work
5XFAD mouse brain = conditions: icv 5 mg/kg/day for 7 days; cited from earlier work
GM2S = GM2S gene expression in PD mouse brain; format: in vivo; conditions: intranasal 5 mg/kg/day for 28 days
Procedure: as §1

Neuro 2a cells = test: TH mRNA expression in Neuro 2a cells (qPCR); format: cell-based, mouse; conditions: 5 mM ganglioside, 24 h
Procedure: (§2) Mouse Neuro-2a neuroblastoma cells (ATCC, Manassas, VA, USA, CCL-131) were maintained in Dulbecco's modified Eagle's medium supplemented with 10% fetal bovine serum, 2 mM glutamine, and penicillin/streptomycin at 37° C., 5% CO2.
Total RNA samples were isolated from substantia nigra of mouse brains or cultured Neuro 2a cells using TRIzol reagent (Life Technologies from Thermo Fisher Scientific). Neuro 2a cells were untreated or treated with 5 mM GD3 or GM1 in B27-supplemented Neuro-basal-A medium for 24 h. cDNAs were synthesized based on the total RNAs as templates using MultiScribe reverse transcriptase (Applied Biosystems, Waltham, MA, USA). qPCR was performed with run RT2 SYBR Green qPCR master mix (QIAGEN, Hilden, Germany) on the CFX96 system (Bio-Rad, Hercules, CA, USA). The relative expression levels of TH were normalized to the actin transcript level. The normalized value from control (WT+saline, or no treated cells) is defined as 1.0. The following primers were used: TH forward, 5′-CACTATGCCCACCCCCAG-3′ (SEQ ID NO:1), reverse: 5′-CGCCGTCCAATGAACCTT-3′ (SEQ ID NO:2); actin forward, 5′-[…]-3′ (SEQ ID NO:3), reverse, 5′-[…]-3′ (SEQ ID NO:4).

Nurr1 = test: Expression and nuclear localization of Nurr1 in substantia nigra pars compacta of A53T PD mouse; format: in vivo; conditions: intranasal 5 mg/kg/day for 28 days
Procedure: as §1

[5] = test system: tyrosine hydroxylase (TH); test: TH expression at substantia nigra in PD mouse brain; format: in vivo; conditions: intranasal 5 mg/kg/day for 28 days
Procedure: as §1

TH gene promoter = test: ChIP assay on TH gene promoter in Neuro 2a cells; format: cell-based, mouse; conditions: 5 mM ganglioside, 24 h
Procedure: as §2
ChIP assays were performed on cell lysates as previously described.31,32,76 Briefly, Neuro 2a cells, untreated or treated with 5 mM GD3 or GM1 for 24 h, were incubated in 1% PFA for 10 min at ambient temperature to crosslink the interacting partners. Cells with the cross-linked complexes were subjected to lysis by sonication with six 20-s pulses at the power scale 7 controlled by a sonicator (Sonic dismembrator model 100, Fisher Scientific). After centrifugation at 15,000×g for 10 min, the supernatants were collected for the following experiments. Immunoprecipitation was carried out with the following specific antibodies bound on protein G-conjugated magnetic beads (Millipore): anti-acetylated histone H3 (Millipore), anti-Nurr1 (R&D Systems), or anti-PITX3 (Thermo Fisher Scientific) antibodies. The amounts of the co-precipitated DNA fragments of TH promoter (+0), the Nurr1 binding site on the TH promoter (TH-NBS), and the PITX3 binding site on TH promoter (TH-PBS) were analyzed by qPCR. After normalization against GAPDH, the value of no treated cells was defined as 1.0. The following primers were used: TH forward, 5′-[…]-3′ (SEQ ID NO:5), reverse, 5′-[…]-3′ (SEQ ID NO:6); TH NBS forward, 5′-[…]-3′ (SEQ ID NO:7), reverse, 5′-[…]-3′ (SEQ ID NO:8); TH PBS forward, 5′-[…]-3′ (SEQ ID NO:9), reverse, 5′-[…]-3′ (SEQ ID NO:10); GAPDH forward, 5′-[…]-3′ (SEQ ID NO:11), reverse, 5′-TCAGTTCGGAG CCCACACGC-3′ (SEQ ID NO:12).

TH = TH expression in substantia nigra of GM2S-KO mouse; format: in vivo; conditions: intranasal 5 mg/kg/day for 28 days, 8 months old GM2S-KO mouse
Procedure: as §1

Substance	VDAC1 expression (VDAC1)	bone area (5XFAD mice [1])	bone mineral content (5XFAD mice [1])	bone mineral density (5XFAD mice [1])	olfactory function (time to uncover the food pellet) (5XFAD mice [2])	memory function (exploration time of novel object) (5XFAD mice [3])	hippocampal NSC (Sox2 positive cell) number [4]	aSyn levels / aSyn accumulation (aSyn)	NSC pools in DG and SVZ (NSC pools in DG and SVZ)	SOX2-expressing cells in DG (5XFAD mouse brain)	expression of GM2S (GM2S)	TH expression (mRNA) (Neuro 2a cells)	expression and nuclear localization of Nurr1 (Nurr1)	TH expression at substantia nigra [5]	acetylated histone H3 on TH gene promoter (ChIP) (TH gene promoter; anti-AcH3)	recruitment of Nurr1 on the TH promoter region (ChIP) (TH gene promoter; anti-Nurr1)	recruitment of Pitx3 on the TH promoter (ChIP) (TH gene promoter; anti-Pitx3)	TH expression in substantia nigra of GM2S-KO mouse (TH)	BrdU+/doublecortin+ (DCX+) newly generated immature neurons (5XFAD mouse brain)
monosialodihexosylganglioside [GD3]	significantly enhance the expression	increased	increased	increased	could not enhance olfactory function	increased memory function	partially restored hippocampal NSC (Sox2 positive cell) number	partially inhibits	augments NSC pools in DG and SVZ	augments self-renewal and multipotent marker, SOX2-expressing cells	–	–	–	–	–	–	–	–	–
monosialotetrahexosylganglioside [GM1]	significantly enhance the expression	increased	increased	increased	enhance olfactory function	increased memory function	–	strongly inhibits; also recorded: reduced aSyn levels	–	–	promoted expression of GM2S	dramatically increased the TH expression	restored	dramatically restored TH expression	augmentation of acetylated histone H3	remarkably recruited	also recruited Pitx3	restore the normal TH expression	increases BrdU+/doublecortin+ (DCX+) newly generated immature neurons
